What was measured:
[1] = molecular target: Serine/threonine-protein kinase PLK1 (Homo sapiens, UniProt P53350); assay: Inhibition of PLK1 by flash plate based radioactive enzyme assay
[2] = Inhibition of PKA by flash plate based radioactive enzyme assay
[3] = molecular target: Tyrosine-protein kinase ABL1 (Homo sapiens, UniProt P00519); assay: Inhibition of ABL1 by flash plate based radioactive enzyme assay
[4] = molecular target: Platelet-derived growth factor receptor beta (Homo sapiens, UniProt P09619); assay: Inhibition of PDGFRbeta by flash plate based radioactive enzyme assay
SK-OV-3 = assay: Cytotoxicity against human SKOV3 cells overexpressing HER2 by resazurin dye reduction assay; assay type: functional, cell-based
A549 = assay: Cytotoxicity against human A549 cells overexpressing HDAC by resazurin dye reduction assay
Histone deacetylase 8 = molecular target: T1, Histone deacetylase 8 (Homo sapiens, UniProt Q9BY41); assay: Inhibition of Flag tagged human recombinant HDAC8 expressed in Sf21 cells
T1 sequence (Q9BY41 whole entry): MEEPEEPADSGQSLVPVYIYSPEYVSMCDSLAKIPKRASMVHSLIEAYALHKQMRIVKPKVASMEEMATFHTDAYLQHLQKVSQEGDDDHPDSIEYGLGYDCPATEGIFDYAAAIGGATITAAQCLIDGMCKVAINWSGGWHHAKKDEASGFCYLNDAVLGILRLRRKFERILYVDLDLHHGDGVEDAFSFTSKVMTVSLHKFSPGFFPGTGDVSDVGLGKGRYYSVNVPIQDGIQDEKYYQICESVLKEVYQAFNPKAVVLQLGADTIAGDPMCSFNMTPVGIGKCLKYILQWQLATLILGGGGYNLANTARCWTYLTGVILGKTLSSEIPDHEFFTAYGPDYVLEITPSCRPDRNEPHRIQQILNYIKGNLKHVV

[5] = molecular target: Receptor tyrosine-protein kinase erbB-2 (Homo sapiens, UniProt P04626); assay: Inhibition of HER2 by flash plate based radioactive enzyme assay
A-431 = assay: Cytotoxicity against human A431 cells overexpressing EGFR by resazurin dye reduction assay
SK-BR-3 = assay: Cytotoxicity against human SKBR3 cells overexpressing HER2 by resazurin dye reduction assay
[6] = Inhibition of HDAC assessed as histone H3K'9+14 acetylation levels by cell based histone H3 hyperacetylation assay
Insulin receptor = Insulin receptor (Homo sapiens, UniProt P06213); assay: Inhibition of INSR by flash plate based radioactive enzyme assay
Histone deacetylase 1 = Histone deacetylase 1 (Homo sapiens, UniProt Q13547); assay: Inhibition of human recombinant HDAC1 expressed in HEK293 cells; assay type: cell-based
[7] = molecular target: Epidermal growth factor receptor (Homo sapiens, UniProt P00533); assay: Inhibition of EGFR by flash plate based radioactive enzyme assay
[8] = molecular target: Cyclin-dependent kinase 2 (Homo sapiens, UniProt P24941); assay: Inhibition of CDK2 by flash plate based radioactive enzyme assay
Histone deacetylase 3 = Histone deacetylase 3 (Homo sapiens, UniProt O15379); assay: Inhibition of Flag tagged human recombinant HDAC3 expressed in Sf21 cells coexpressing SMRT DAD domain
CAL-27 = assay: Cytotoxicity against human CAL27 cells overexpressing EGFR by resazurin dye reduction assay
HeLa = assay: Cytotoxicity against human HeLa cells overexpressing HDAC by resazurin dye reduction assay
[9] = molecular target: T2, Protein deacetylase HDAC6 (Homo sapiens, UniProt Q9UBN7); assay: Inhibition of human recombinant HDAC6 expressed in HEK293 cells; assay type: cell-based
T2 sequence (Q9UBN7 whole entry): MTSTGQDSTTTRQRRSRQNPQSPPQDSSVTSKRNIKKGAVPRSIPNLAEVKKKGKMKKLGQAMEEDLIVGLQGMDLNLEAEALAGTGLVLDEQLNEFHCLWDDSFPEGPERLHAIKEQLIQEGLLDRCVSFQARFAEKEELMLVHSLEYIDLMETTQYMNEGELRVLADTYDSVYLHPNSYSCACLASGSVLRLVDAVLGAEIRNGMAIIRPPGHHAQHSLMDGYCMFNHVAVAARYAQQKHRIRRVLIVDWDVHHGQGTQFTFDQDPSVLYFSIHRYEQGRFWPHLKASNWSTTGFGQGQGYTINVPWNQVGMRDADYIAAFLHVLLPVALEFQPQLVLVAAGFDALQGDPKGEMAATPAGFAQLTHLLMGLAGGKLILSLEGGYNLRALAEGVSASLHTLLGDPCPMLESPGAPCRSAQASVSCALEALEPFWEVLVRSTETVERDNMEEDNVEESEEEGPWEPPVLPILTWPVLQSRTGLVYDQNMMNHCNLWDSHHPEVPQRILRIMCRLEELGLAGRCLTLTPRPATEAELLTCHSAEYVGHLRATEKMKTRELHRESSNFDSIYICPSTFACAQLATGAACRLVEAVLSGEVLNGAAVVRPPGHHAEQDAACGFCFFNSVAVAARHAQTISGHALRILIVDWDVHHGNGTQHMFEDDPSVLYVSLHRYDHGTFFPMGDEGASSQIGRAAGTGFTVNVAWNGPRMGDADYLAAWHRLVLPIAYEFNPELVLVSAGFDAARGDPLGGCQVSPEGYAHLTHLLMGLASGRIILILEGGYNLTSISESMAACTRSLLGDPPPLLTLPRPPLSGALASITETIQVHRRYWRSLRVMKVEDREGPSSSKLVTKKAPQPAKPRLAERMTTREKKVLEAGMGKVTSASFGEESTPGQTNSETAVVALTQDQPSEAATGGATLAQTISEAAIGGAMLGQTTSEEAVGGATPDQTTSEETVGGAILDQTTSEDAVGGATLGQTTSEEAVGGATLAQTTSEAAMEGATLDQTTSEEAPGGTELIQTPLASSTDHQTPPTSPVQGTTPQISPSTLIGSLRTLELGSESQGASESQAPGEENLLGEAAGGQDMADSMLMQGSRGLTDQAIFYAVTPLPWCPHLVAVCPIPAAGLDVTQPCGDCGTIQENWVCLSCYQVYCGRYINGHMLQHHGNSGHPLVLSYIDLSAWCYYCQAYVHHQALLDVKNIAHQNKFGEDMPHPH

Histone deacetylase = assay: Inhibition of HDAC in human HeLa cell nuclear extracts; assay type: cell-based

Chain of Histone deacetylase 1 (Q13547 whole entry): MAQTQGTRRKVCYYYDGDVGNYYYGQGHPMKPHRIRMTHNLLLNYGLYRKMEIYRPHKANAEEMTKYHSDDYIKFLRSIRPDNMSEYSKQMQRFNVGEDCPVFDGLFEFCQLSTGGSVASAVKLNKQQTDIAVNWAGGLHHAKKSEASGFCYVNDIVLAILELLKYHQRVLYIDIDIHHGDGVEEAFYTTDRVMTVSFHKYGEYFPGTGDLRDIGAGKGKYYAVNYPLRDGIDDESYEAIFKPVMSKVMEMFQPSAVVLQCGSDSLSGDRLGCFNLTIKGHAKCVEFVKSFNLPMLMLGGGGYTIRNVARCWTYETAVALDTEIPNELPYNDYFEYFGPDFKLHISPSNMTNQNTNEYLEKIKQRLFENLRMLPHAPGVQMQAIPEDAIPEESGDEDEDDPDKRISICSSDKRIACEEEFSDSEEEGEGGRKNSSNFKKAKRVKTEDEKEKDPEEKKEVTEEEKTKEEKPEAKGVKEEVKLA
Chain of Histone deacetylase 3 (O15379 whole entry, the tested form may be a part): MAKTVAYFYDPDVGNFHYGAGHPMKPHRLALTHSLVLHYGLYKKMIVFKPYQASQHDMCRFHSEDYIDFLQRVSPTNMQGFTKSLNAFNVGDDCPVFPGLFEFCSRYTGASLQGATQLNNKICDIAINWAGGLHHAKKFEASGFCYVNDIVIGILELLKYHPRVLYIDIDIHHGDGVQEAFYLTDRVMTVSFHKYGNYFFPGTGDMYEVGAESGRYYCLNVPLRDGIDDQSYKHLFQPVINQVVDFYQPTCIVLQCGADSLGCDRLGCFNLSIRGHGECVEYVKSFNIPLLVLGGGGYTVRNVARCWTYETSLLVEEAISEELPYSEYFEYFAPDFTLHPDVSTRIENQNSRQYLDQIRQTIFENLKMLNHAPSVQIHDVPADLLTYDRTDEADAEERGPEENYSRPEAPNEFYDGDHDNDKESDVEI
Chain of Tyrosine-protein kinase ABL1 (P00519 whole entry): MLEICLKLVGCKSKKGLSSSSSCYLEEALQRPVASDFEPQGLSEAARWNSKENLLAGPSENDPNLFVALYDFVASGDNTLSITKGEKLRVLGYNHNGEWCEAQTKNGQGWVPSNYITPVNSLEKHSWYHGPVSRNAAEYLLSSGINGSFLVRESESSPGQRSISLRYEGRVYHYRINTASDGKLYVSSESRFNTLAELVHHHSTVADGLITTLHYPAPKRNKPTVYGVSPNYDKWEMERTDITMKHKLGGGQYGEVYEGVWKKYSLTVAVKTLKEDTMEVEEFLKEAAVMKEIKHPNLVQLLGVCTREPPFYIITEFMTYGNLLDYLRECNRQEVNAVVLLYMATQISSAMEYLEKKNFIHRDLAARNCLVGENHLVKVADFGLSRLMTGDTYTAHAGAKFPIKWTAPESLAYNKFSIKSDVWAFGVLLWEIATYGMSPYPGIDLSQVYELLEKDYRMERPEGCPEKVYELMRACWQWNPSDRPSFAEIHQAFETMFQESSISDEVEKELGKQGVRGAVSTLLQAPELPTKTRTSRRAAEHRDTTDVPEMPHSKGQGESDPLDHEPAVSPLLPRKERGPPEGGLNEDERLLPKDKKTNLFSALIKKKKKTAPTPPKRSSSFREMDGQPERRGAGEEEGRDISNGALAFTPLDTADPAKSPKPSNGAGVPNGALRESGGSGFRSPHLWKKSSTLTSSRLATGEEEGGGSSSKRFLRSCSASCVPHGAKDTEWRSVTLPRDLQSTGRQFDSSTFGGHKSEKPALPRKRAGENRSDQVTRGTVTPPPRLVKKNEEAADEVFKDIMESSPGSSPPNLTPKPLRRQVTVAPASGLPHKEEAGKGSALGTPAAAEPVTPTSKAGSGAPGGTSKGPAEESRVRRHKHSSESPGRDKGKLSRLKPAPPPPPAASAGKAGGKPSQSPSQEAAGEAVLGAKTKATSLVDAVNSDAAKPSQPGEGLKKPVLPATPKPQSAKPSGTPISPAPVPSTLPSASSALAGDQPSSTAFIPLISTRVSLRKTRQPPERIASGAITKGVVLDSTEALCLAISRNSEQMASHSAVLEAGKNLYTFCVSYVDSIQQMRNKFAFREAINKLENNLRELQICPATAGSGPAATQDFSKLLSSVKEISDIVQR
Chain of Epidermal growth factor receptor (P00533 whole entry): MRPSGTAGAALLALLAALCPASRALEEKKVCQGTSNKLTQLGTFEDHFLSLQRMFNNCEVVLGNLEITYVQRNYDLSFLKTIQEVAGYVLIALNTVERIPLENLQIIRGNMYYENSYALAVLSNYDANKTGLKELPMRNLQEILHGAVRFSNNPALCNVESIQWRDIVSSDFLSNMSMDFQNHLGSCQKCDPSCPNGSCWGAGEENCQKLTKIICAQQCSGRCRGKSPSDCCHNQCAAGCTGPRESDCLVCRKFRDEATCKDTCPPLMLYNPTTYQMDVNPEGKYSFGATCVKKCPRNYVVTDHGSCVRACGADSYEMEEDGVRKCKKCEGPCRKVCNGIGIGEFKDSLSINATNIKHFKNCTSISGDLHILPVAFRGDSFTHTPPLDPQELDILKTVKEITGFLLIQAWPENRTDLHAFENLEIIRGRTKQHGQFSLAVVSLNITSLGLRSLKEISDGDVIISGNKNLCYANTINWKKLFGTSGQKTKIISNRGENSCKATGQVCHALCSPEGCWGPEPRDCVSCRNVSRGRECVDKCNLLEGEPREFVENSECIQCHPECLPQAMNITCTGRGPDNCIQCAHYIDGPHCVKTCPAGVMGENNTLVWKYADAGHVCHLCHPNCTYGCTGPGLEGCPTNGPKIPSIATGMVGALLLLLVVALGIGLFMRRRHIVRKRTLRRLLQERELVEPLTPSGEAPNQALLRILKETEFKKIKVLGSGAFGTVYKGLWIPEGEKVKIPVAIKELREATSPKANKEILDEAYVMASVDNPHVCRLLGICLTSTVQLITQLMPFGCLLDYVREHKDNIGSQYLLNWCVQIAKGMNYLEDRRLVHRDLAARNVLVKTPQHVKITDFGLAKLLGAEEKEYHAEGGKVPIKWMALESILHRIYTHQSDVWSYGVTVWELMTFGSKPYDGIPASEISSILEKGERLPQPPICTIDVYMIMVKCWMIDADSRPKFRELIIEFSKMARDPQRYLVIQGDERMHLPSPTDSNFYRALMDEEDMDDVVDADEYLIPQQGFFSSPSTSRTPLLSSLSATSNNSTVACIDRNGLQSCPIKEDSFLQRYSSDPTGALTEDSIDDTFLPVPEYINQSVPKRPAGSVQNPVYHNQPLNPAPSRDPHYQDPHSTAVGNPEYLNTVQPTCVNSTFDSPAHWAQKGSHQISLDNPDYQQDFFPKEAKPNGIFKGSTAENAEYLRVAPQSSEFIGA
Chain of Insulin receptor (P06213 28-758 limits assumed): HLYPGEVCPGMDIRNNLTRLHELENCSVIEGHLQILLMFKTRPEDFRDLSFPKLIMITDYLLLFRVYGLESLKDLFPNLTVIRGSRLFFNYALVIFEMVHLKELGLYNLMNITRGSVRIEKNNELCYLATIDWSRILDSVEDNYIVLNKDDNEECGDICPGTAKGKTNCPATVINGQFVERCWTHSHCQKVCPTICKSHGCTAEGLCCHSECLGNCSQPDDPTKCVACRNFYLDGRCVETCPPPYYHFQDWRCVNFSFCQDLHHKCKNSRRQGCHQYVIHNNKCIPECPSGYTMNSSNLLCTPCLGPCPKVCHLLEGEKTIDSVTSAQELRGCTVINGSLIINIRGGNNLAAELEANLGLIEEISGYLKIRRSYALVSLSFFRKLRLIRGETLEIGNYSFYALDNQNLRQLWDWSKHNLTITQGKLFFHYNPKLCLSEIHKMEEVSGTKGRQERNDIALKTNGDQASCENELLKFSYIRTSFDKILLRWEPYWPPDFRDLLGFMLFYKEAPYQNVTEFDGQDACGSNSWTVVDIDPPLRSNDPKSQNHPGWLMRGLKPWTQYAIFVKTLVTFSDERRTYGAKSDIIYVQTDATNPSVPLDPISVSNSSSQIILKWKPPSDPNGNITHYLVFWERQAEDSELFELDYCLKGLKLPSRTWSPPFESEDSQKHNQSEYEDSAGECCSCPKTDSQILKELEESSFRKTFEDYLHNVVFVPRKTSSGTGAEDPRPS
Chain of Insulin receptor (P06213 763-1382 limits assumed): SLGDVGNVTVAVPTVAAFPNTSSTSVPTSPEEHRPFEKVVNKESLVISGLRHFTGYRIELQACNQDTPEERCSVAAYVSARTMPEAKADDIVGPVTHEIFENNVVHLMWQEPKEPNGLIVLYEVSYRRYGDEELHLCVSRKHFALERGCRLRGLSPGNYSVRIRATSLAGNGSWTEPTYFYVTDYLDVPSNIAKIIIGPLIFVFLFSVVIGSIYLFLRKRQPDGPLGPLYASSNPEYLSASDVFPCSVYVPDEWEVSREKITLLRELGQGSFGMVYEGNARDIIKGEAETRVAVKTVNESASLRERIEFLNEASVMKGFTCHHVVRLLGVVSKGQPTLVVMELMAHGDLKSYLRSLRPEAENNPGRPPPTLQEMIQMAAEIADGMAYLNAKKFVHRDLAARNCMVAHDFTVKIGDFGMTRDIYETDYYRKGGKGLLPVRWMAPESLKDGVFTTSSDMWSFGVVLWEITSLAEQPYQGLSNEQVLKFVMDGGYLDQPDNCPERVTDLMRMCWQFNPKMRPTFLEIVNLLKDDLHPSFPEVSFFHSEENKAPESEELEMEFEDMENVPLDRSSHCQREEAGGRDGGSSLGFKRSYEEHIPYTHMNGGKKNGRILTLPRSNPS

SMILES | IC50 [1] | IC50 [2] | IC50 [3] | IC50 [4] | IC50 (SK-OV-3) | IC50 (A549) | IC50 (Histone deacetylase 8) | IC50 [5] | IC50 (A-431) | IC50 (SK-BR-3) | EC50 [6] | IC50 (Insulin receptor) | IC50 (Histone deacetylase 1) | IC50 [7] | IC50 [8] | IC50 (Histone deacetylase 3) | IC50 (CAL-27) | IC50 (HeLa) | IC50 [9] | IC50 (Histone deacetylase)
O=C(NO)c1ccc(-c2ccc3ncnc(Nc4ccc(OCc5cccc(F)c5)c(Cl)c4)c3c2)o1 | 2 µM | 85 µM | 1.7 µM | 1 µM | 15 µM | > 16 µM | 7.7 µM | 0.002 µM | > 5 µM | 0.27 µM | > 100 µM | 1.4 µM | > 50 µM | 0.0039 µM | 0.46 µM | > 32 µM | 0.2 µM |  |  | 
Nc1ccccc1NC(=O)CCc1ccc(-c2ccc3ncnc(Nc4ccc(OCc5cccc(F)c5)c(Cl)c4)c3c2)cc1 | 27 µM | > 100 µM | 6.9 µM | 4.7 µM | 13 µM | 22 µM | > 32 µM | 0.0047 µM | 8.6 µM | 4.4 µM |  | 7.1 µM | > 32 µM | 0.015 µM | 1.4 µM | > 32 µM | 0.2 µM | 8.3 µM | > 32 µM | > 32 µM
Nc1ccccc1NC(=O)/C=C/c1ccc(-c2ccc3ncnc(Nc4ccc(OCc5cccc(F)c5)c(Cl)c4)c3c2)o1 | 8.5 µM | > 100 µM | 4.9 µM | 3.9 µM | 22 µM | 18 µM | > 32 µM | 0.0087 µM | 5.3 µM | 0.26 µM |  | 5.5 µM | > 100 µM | 0.026 µM | 1.9 µM | > 32 µM | 3.6 µM | 6.5 µM | > 32 µM | > 32 µM
CS(=O)(=O)CCNCc1ccc(-c2ccc3ncnc(Nc4ccc(OCc5cccc(F)c5)c(Cl)c4)c3c2)o1 [LAPATINIB] |  | > 100 µM |  |  | 0.003 µM |  | > 10 µM |  |  | 0.002 µM | > 30 µM |  |  |  |  | > 10 µM | 0.007 µM | 5.9 µM | > 10 µM | 
Nc1ccccc1NC(=O)c1ccc(-c2ccc3ncnc(Nc4ccc(OCc5cccc(F)c5)c(Cl)c4)c3c2)s1 | 5.6 µM | > 100 µM | 6 µM | 2.3 µM | 3.9 µM | 9.1 µM | > 32 µM | 0.0049 µM | 2.4 µM | 0.62 µM | > 100 µM | 2.5 µM | > 50 µM | 0.0028 µM | 2.1 µM | > 32 µM | 0.71 µM | 3.7 µM | > 10 µM | > 10 µM
O=C(NO)c1ccc(-c2ccc3ncnc(Nc4ccc(OCc5cccc(F)c5)c(Cl)c4)c3c2)s1 |  | > 100 µM | 1.7 µM | 1.8 µM | 3.1 µM | 3.4 µM | 0.98 µM | 0.0035 µM | 1.9 µM | 0.42 µM | > 100 µM | 1.7 µM | 0.94 µM | 0.0022 µM | 0.2 µM | 0.56 µM | 0.65 µM |  | 0.05 µM | 0.43 µM
Nc1ccccc1NC(=O)c1ccc(-c2ccc3ncnc(Nc4ccc(OCc5cccc(F)c5)c(Cl)c4)c3c2)o1 | 3.9 µM | > 100 µM | 4.5 µM | 4 µM | > 50 µM | ≥ 16 µM | > 32 µM | 0.0057 µM | > 5 µM |  | > 100 µM |  | > 50 µM | 0.0029 µM | 15 µM | > 32 µM | 0.33 µM | 8 µM | > 10 µM | > 100 µM
